Source: patent US11708348B2, “Protease inhibitors for treatment of coronavirus infections” (The Scripps Research Institute, priority 2021, dated 2023)
Where two headings read alike, the source gives them in different places.

Test system: SARS-CoV-2 strain USA-WA1/2020
Test: microbe, parasite or virus in culture
Format: cell-based
Conditions: Severe acute respiratory syndrome coronavirus 2, HeLa-ACE2, 24 h, read-out: EC50, uM (Hela)
[1] = HeLa-ACE2 cells, SARS-CoV-2 infection, 24 h

Row | Compound | EC50 [µM] | EC50 [1] [µM]
1 | CC(C)C[C@H](NC(=O)C(=O)Nc1ccccc1)C(=O)N[C@@H](C[C@@H]1CCNC1=O)C(=O)COP(C)(=O)c1ccccc1 (stereo partly drawn) [Compound 653, (S)-3-((S)-4-methyl-2-(2-oxo-2-(phenylamino)acetamido)pentanamido)-2-oxo-4-((S)-2-oxopyrrolidin-3-yl)butyl methyl(phenyl)phosphinate] | 0.2 to 0.5 | 
2 | CSCC[C@H](NC(=O)[C@H](CC(C)C)NC(=O)C(=O)Nc1ccccc1F)C(=O)COc1c(F)c(F)cc(F)c1F [Compound 654, N1-(2-fluorophenyl)-N2-((S)-4-methyl-1-(((S)-5-(methylthio)-2-oxo-1-(2,3,5,6-tetrafluorophenoxy)pentan-3-yl)amino)-1-oxopentan-2-yl)oxalamide] |  | 0.5 to 1
3 | CC(C)C[C@H](NC(=O)C(=O)Nc1ccccc1F)C(=O)N[C@@H](CCS(C)(=O)=O)C(=O)COc1c(F)c(F)cc(F)c1F [Compound 655, N1-(2-fluorophenyl)-N2-((S)-4-methyl-1-(((S)-5-(methylsulfonyl)-2-oxo-1-(2,3,5,6-tetrafluorophenoxy)pentan-3-yl)amino)-1-oxopentan-2-yl)oxalamide] |  | 0.5 to 1
4 | O=C(NC1(C(F)(F)F)CC1)C(=O)N1C[C@@H]2CCC[C@@H]2[C@H]1C(=O)N[C@@H](C[C@@H]1CCNC1=O)C(=O)COC(F)(F)F [Compound 656, (1S,3aR,6aS)-N-((S)-3-oxo-1-((S)-2-oxopyrrolidin-3-yl)-4-(trifluoromethoxy)butan-2-yl)-2-(2-oxo-2-((1-(trifluoromethyl)cyclopropyl)amino)-acetyl)octahydrocyclopenta[c]pyrrole-1-carboxamide] |  | 0.05 to 0.2
5 | CC(C)(C)NC(=O)C(=O)N1CC2(CCCC2)CC1C(=O)N[C@@H](C[C@@H]1CCNC1=O)C(=O)COC(F)(F)F (stereo partly drawn) [Compound 657, 2-(2-(tert-butylamino)-2-oxoacetyl)-N-((S)-3-oxo-1-((S)-2-oxopyrrolidin-3-yl)-4-(trifluoromethoxy)butan-2-yl)-2-azaspiro[4.4]nonane-3-carboxamide] |  | < 0.05
6 | CC(C)(C)C[C@@H](O)C(=O)N1CC2(CC2)C[C@H]1C(=O)N[C@@H](C[C@@H]1CCNC1=O)C(=O)COC(F)(F)F [Compound 658, (S)-5-((R)-2-hydroxy-4,4-dimethylpentanoyl)-N-((S)-3-oxo-1-((S)-2-oxopyrrolidin-3-yl)-4-(trifluoromethoxy)butan-2-yl)-5-azaspiro[2.4]heptane-6-carboxamide] |  | < 0.05
7 | O=C1NCC[C@H]1C[C@H](NC(=O)[C@@H]1[C@H]2CCC[C@H]2CN1C(=O)c1noc2ccc(Cl)cc12)C(=O)COC(F)(F)F [Compound 659, (1S,3aR,6aS)-2-(5-chlorobenzo[d]isoxazole-3-carbonyl)-N-((S)-3-oxo-1-((S)-2-oxopyrrolidin-3-yl)-4-(trifluoromethoxy)butan-2-yl)octahydrocyclopenta[c]pyrrole-1-carboxamide] |  | < 0.05
8 | CN[C@H](CC(C)C)C(=O)N1CC2(CC2)C[C@H]1C(=O)N[C@@H](C[C@@H]1CCNC1=O)C(=O)COC(F)(F)F [Compound 660, (S)-5-(methyl-D-leucyl)-N-((S)-3-oxo-1-((S)-2-oxopyrrolidin-3-yl)-4-(trifluoromethoxy)butan-2-yl)-5-azaspiro[2.4]heptane-6-carboxamide] |  | 0.05 to 0.2
9 | O=C1NCC[C@H]1C[C@H](NC(=O)[C@@H]1CC2(CC2)CN1C(=O)C1CCC(F)(F)CC1)C(=O)COC(F)(F)F [Compound 661, (S)-5-(4,4-difluorocyclohexane-1-carbonyl)-N-((S)-3-oxo-1-((S)-2-oxopyrrolidin-3-yl)-4-(trifluoromethoxy)butan-2-yl)-5-azaspiro[2.4]heptane-6-carboxamide] |  | 0.05 to 0.2
10 | C=CC[C@@H](O)C(=O)N1CC2(CC2)C[C@H]1C(=O)N[C@@H](C[C@@H]1CCNC1=O)C(=O)COC(F)(F)F [Compound 662, (S)-5-((R)-2-hydroxypent-4-enoyl)-N-((S)-3-oxo-1-((S)-2-oxopyrrolidin-3-yl)-4-(trifluoromethoxy)butan-2-yl)-5-azaspiro[2.4]heptane-6-carboxamide] |  | 0.05 to 0.2
11 | O=C1NCC[C@H]1C[C@H](NC(=O)[C@@H]1CC2(CC2)CN1C(=O)c1cc2cccc(Cl)c2[nH]1)C(=O)COC(F)(F)F [Compound 663, (S)-5-(7-chloro-1H-indole-2-carbonyl)-N-((S)-3-oxo-1-((S)-2-oxopyrrolidin-3-yl)-4-(trifluoromethoxy)butan-2-yl)-5-azaspiro[2.4]heptane-6-carboxamide] |  | < 0.05
12 | CC(C)(C)C(=O)N1CC2(CC2)C[C@H]1C(=O)N[C@@H](C[C@@H]1CCNC1=O)C(=O)COC(F)(F)F [Compound 665, (S)-N-((S)-3-oxo-1-((S)-2-oxopyrrolidin-3-yl)-4-(trifluoromethoxy)butan-2-yl)-5-pivaloyl-5-azaspiro[2.4]heptane-6-carboxamide] |  | 0.05 to 0.2
13 | COc1ccc(/C=C/C[C@@H](O)C(=O)N2CC3(CC3)C[C@H]2C(=O)N[C@@H](C[C@@H]2CCNC2=O)C(=O)COC(F)(F)F)cc1 [Compound 666, (S)-5-((R,E)-2-hydroxy-5-(4-methoxyphenyl)pent-4-enoyl)-N-((S)-3-oxo-1-((S)-2-oxopyrrolidin-3-yl)-4-(trifluoromethoxy)butan-2-yl)-5-azaspiro[2.4]heptane-6-carboxamide] |  | 0.05 to 0.2
14 | O=C1NCC[C@H]1C[C@H](NC(=O)[C@@H]1CC2(CC2)CN1C(=O)[C@H](O)C/C=C/c1ccc(F)cc1)C(=O)COC(F)(F)F [Compound 667, (S)-5-((R,E)-5-(4-fluorophenyl)-2-hydroxypent-4-enoyl)-N-((S)-3-oxo-1-((S)-2-oxopyrrolidin-3-yl)-4-(trifluoromethoxy)butan-2-yl)-5-azaspiro[2.4]heptane-6-carboxamide] |  | 0.05 to 0.2
15 | O=C1NCC[C@H]1C[C@H](NC(=O)[C@@H]1CC2(CC2)CN1C(=O)CNS(=O)(=O)Nc1ccccc1)C(=O)COC(F)(F)F [Compound 669, (S)-N-((S)-3-oxo-1-((S)-2-oxopyrrolidin-3-yl)-4-(trifluoromethoxy)butan-2-yl)-5-((N-phenylsulfamoyl)glycyl)-5-azaspiro[2.4]heptane-6-carboxamide] |  | 0.05 to 0.2
16 | O=C1NCC[C@H]1C[C@H](NC(=O)[C@@H]1CC2(CC2)CN1C(=O)CCNS(=O)(=O)Nc1ccccc1)C(=O)COC(F)(F)F [Compound 670, (S)-N-((S)-3-oxo-1-((S)-2-oxopyrrolidin-3-yl)-4-(trifluoromethoxy)butan-2-yl)-5-(3-((N-phenylsulfamoyl)amino)propanoyl)-5-azaspiro[2.4]heptane-6-carboxamide] |  | 0.2 to 0.5
17 | CC(C)C[C@@H](O)C(=O)N[C@@H](Cc1cccc(F)c1)C(=O)N[C@@H](C[C@@H]1CCNC1=O)C(=O)COC(F)(F)F [Compound 671, (R)-N-((S)-3-(3-fluorophenyl)-1-oxo-1-(((S)-3-oxo-1-((S)-2-oxopyrrolidin-3-yl)-4-(trifluoromethoxy)butan-2-yl)amino)propan-2-yl)-2-hydroxy-4-methylpentanamide] |  | < 0.05
18 | O=C1NCC[C@H]1C[C@H](NC(=O)[C@@H]1CC2(CC2)CN1C(=O)CNCC(F)(F)F)C(=O)COC(F)(F)F [Compound 672, (S)-N-((S)-3-oxo-1-((S)-2-oxopyrrolidin-3-yl)-4-(trifluoromethoxy)butan-2-yl)-5-((2,2,2-trifluoroethyl)glycyl)-5-azaspiro[2.4]heptane-6-carboxamide] |  | 0.05 to 0.2
19 | O=C1NCC[C@H]1C[C@H](NC(=O)[C@@H]1CC2(CC2)CN1C(=O)COCC(F)(F)F)C(=O)COC(F)(F)F [Compound 673, (S)-N-((S)-3-oxo-1-((S)-2-oxopyrrolidin-3-yl)-4-(trifluoromethoxy)butan-2-yl)-5-(2-(2,2,2-trifluoroethoxy)acetyl)-5-azaspiro[2.4]heptane-6-carboxamide] |  | 0.05 to 0.2
20 | O=C(C(=O)N1CC2(CC2)C[C@H]1C(=O)N[C@@H](C[C@@H]1CCNC1=O)C(=O)COC(F)(F)F)c1ccccc1 [Compound 674, (S)-N-((S)-3-oxo-1-((S)-2-oxopyrrolidin-3-yl)-4-(trifluoromethoxy)butan-2-yl)-5-(2-oxo-2-phenylacetyl)-5-azaspiro[2.4]heptane-6-carboxamide] |  | 0.05 to 0.2
21 | CS(=O)(=O)NC/C=C/C[C@@H](O)C(=O)N1CC2(CC2)C[C@H]1C(=O)N[C@@H](C[C@@H]1CCNC1=O)C(=O)COC(F)(F)F [Compound 675, (S)-5-((R,E)-2-hydroxy-6-(methylsulfonamido)hex-4-enoyl)-N-((S)-3-oxo-1-((S)-2-oxopyrrolidin-3-yl)-4-(trifluoromethoxy)butan-2-yl)-5-azaspiro[2.4]heptane-6-carboxamide] |  | 0.2 to 0.5
22 | CNC(=O)C(=O)N1CC2(CC2)C[C@H]1C(=O)N[C@@H](C[C@@H]1CCNC1=O)C(=O)COC(F)(F)F [Compound 676, (S)-5-(2-(methylamino)-2-oxoacetyl)-N-((S)-3-oxo-1-((S)-2-oxopyrrolidin-3-yl)-4-(trifluoromethoxy)butan-2-yl)-5-azaspiro[2.4]heptane-6-carboxamide] |  | 0.05 to 0.2
23 | CNC(=O)C(=O)N[C@@H](Cc1cccc(F)c1)C(=O)N[C@@H](C[C@@H]1CCNC1=O)C(=O)COC(F)(F)F [Compound 677, N1-((S)-3-(3-fluorophenyl)-1-oxo-1-(((S)-3-oxo-1-((S)-2-oxopyrrolidin-3-yl)-4-(trifluoromethoxy)butan-2-yl)amino)propan-2-yl)-N2-methyloxalamide] |  | < 0.05
24 | CC(F)(F)CCC(=O)N1CC2(CC2)C[C@H]1C(=O)N[C@@H](C[C@@H]1CCNC1=O)C(=O)COC(F)(F)F [Compound 678, (S)-5-(4,4-difluoropentanoyl)-N-((S)-3-oxo-1-((S)-2-oxopyrrolidin-3-yl)-4-(trifluoromethoxy)butan-2-yl)-5-azaspiro[2.4]heptane-6-carboxamide] |  | < 0.05
25 | O=C1NCC[C@H]1C[C@H](NC(=O)[C@@H]1CC2(CC2)CN1C(=O)[C@@H]1CCCO1)C(=O)COC(F)(F)F [Compound 679, (S)-N-((S)-3-oxo-1-((S)-2-oxopyrrolidin-3-yl)-4-(trifluoromethoxy)butan-2-yl)-5-((S)-tetrahydrofuran-2-carbonyl)-5-azaspiro[2.4]heptane-6-carboxamide] |  | 0.2 to 0.5
